Patent US20160271160A1, “HCV POLYMERASE INHIBITORS” (MEDIVIR AB, priority 2013, published 2016)
pEC50, pKi: −log10 of the molar value. Read-outs that look alike come from different tables or passages of the source.

Columns and labels:
genotype 1b HCV replicon = settings: from WO 2012/142085; cited from earlier work
[1] = system: HCV type 1b replicon in Huh-7 luc/neo (Huh-Luc) cells; assay: HCV replicon assay (Huh-Luc, luciferase readout); type: cell-based; settings: Hepatitis C virus, Huh-7, 72 h
From the text: The compounds of formula I may be examined for activity in the inhibition of HCV RNA replication in a cellular assay aimed at identifying compounds that inhibit a HCV functional cellular replicating cell line, also known as HCV replicons. A suitable cellular assay is based on a bicistronic expression construct, as described by Lohmann et al. (1999), Science vol. 285 pp. 110-113 with modifications described by Krieger et al. (2001), Journal of Virology 75: 4614-4624, in a multi-target screening strategy.
The assay utilizes the stably transfected cell line Huh-7 luc/neo (hereafter referred to as Huh-Luc). This cell line harbours an RNA encoding a bicistronic expression construct comprising the wild type NS3-NS5B regions of HCV type 1b translated from an Internal Ribosome Entry Site (IRES) from encephalomyocarditis virus (EMCV), preceded by a reporter portion (FfL-luciferase), and a selectable marker portion (neo^R, neomycine phosphotransferase). The construct is bordered by 5′ and 3′ NTRs (non-translated regions) from HCV type 1b. Continued culture of the replicon cells in the presence of G418 (neo^R) is dependent on the replication of the HCV RNA. The stably transfected replicon cells that express HCV RNA, which replicates autonomously and to high levels, encoding inter alia luciferase, are used for screening the antiviral compounds.
The replicon cells are plated in 384 well plates in the presence of the test and control compounds which are added in various concentrations. Following an incubation of three days. HCV replication is measured by assaying luciferase activity (using standard luciferase assay substrates and reagents and a Perkin Elmer ViewLux™ ultraHTS microplate imager). Replicon cells in the control cultures have high luciferase expression in the absence of any inhibitor. The inhibitory activity of a compound on luciferase activity is monitored on the Huh-Luc cells, enabling a dose-response curve for each test compound. EC50 values are then calculated, which value represents the amount of the compound required to decrease the level of detected luciferase activity by 50%, or more specifically, the ability of the genetically linked HCV replicon RNA to replicate, […]

HCV NS5B-21 = HCV NS5B-21 (UniProt Q9WMX2); assay: HCV NS5B-21 SPA enzyme assay; type: biochemical; settings: triphosphate tested
Experimental: It is this triphosphate which is believed to be the antivirally active species. The enzyme assay described here may be used to confirm that compounds of the invention are antivirally active as the 5-triphosphate metabolite.
The enzyme assay measures the inhibitory effect of triphosphate compounds in an HCV NS5B-21 (21-amino acid C-terminally truncated version) SPA assay (scintillation proximity assay). The assay is performed by evaluating the amount of radiolabelled ATP incorporated by HCV NS5B-21 into newly synthesized RNA using an heterogeneous biotinylated RNA template.
To determine IC50 values the compounds are tested at various concentrations in a final volume of 100 μl of reaction mixture. The reaction is stopped by addition of 0.5M EDTA solution. The samples are transferred into flashplates precoated with streptavidin. The incorporated radioactivity is quantified using a scintillation counter (Wallac Microbeta Trilux).
The assay should include enzyme controls (about four, containing 1 μl DMSO instead of inhibitor) and background control containing all ingredients except template.
Compounds are serially diluted in DMSO on a separate dilution plate to 100× the final desired assay concentrations. […]
Incubate the plate over night and read the flash plate in the Microbeta Trilux using the protocol Flash plates H3.
IC50 is determined using Graphpad Prism. […]

[2] = HCV type 1b replicon, Huh-Luc cells, three days incubation, luciferase, read-out: EC50

Chain of HCV NS5B-21 (Q9WMX2 2420-3010): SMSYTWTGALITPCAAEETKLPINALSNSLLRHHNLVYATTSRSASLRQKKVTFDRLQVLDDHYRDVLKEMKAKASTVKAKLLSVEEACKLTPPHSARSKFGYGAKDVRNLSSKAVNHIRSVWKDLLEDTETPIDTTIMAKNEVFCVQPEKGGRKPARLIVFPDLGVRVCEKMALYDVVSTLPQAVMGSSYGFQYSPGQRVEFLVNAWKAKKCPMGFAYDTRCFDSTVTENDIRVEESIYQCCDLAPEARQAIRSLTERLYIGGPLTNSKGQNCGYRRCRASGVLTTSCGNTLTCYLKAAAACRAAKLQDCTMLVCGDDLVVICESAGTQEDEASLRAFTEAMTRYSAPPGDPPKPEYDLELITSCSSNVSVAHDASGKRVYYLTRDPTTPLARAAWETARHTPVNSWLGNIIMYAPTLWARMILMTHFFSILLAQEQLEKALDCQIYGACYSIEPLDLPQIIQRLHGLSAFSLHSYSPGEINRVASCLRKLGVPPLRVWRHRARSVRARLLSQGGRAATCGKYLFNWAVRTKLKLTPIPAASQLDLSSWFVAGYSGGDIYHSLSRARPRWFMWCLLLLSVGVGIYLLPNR

SMILES | pEC50 [1, 2] | other results
CC1(Cl)C(O)C(CO)OC1n1ccc(N)nc1=O (stereo not drawn) [corresponding nucleoside] |  | pEC50 (genotype 1b HCV replicon): 5.00
C[C@H](NP(=O)(OC[C@H]1O[C@@H](n2ccc(=O)[nH]c2=O)C(Cl)(Cl)[C@@H]1O)Oc1ccccc1)C(=O)OC1CCCCC1 (stereo partly drawn) [Example 5, (2S)-Cyclohexyl 2-(((((2R,3R,5R)-4,4-dichloro-5-(2,4-dioxo-3,4-dihydropyrimidin-1(2H)-yl)-3-hydroxytetrahydrofuran-2-yl)methoxy)(phenoxy)phosphoryl)amino)propanoate] | 6.80 | 
O=c1ccn([C@@H]2O[C@H](COP(=O)(O)OP(=O)(O)OP(=O)(O)O)[C@@H](O)C2(Cl)Cl)c(=O)[nH]1 [Example 3, Lithium((2R,3R,5R)-4,4-dichloro-5-(2,4-dioxo-3,4-dihydropyrimidin-1(2H)-yl)-3-hydroxytetrahydrofuran-2-yl)methyl triphosphate] |  | pKi (HCV NS5B-21): 5.80
Nc1ccn([C@@H]2O[C@H](CO)[C@@H](O)C2(Cl)Cl)c(=O)n1 [Example 11, 4-Amino-1-((2R,4R,5R)-3,3-dichloro-4-hydroxy-5-(hydroxymethyl)tetrahydrofuran-2-yl)pyrimidin-2(1H)-one] | 4.89 | 
CC(C)OC(=O)[C@H](C)OP(=O)(OC[C@H]1O[C@@H](n2ccc(N)nc2=O)[C@](C)(Cl)[C@@H]1O)Oc1ccccc1 (stereo partly drawn) [compound 8 of Merck WO2012/142085] |  | pEC50 (genotype 1b HCV replicon): 4.47
CC(C)OC(=O)[C@H](C)NP(=S)(OC[C@H]1O[C@@H](n2ccc(=O)[nH]c2=O)C(Cl)(Cl)[C@@H]1O)Oc1ccccc1 (stereo partly drawn) [Example 13, (2S)-Isopropyl 2-(((((2R,3R,5R)-4,4-Dichloro-5-(2,4-dioxo-3,4-dihydropyrimidin-1(2H)-yl)-3-hydroxytetrahydrofuran-2-yl)methoxy)(phenoxy)phosphorothioyl)amino)propanoate] |  | pEC50 [1]: 5.27
CC(C)OC(=O)[C@H](C)NP(=O)(OC[C@H]1O[C@@H](n2ccc(N)nc2=O)C(Cl)(Cl)[C@@H]1O)Oc1ccccc1 (stereo partly drawn) [Example 12, (2S)-isopropyl 2-(((((2R,3R,5R)-5-(4-Amino-2-oxopyrimidin-1(2H)-yl)-4,4-dichloro-3-hydroxytetrahydrofuran-2-yl)methoxy)(phenoxy)phosphoryl)amino)propanoate] | 6.77 | 
CC(C)OC(=O)[C@H](C)NP(=O)(OC[C@H]1O[C@@H](n2ccc(=O)[nH]c2=O)C(Cl)(Cl)[C@@H]1O)Oc1cccc(C2(C)CC2)c1 (stereo partly drawn) [Example 8, (2S)-Isopropyl 2-(((((2R,3R,5R)-4,4-dichloro-5-(2,4-dioxo-3,4-dihydropyrimidin-1(2H)-yl)-3-hydroxytetrahydrofuran-2-yl)methoxy)(3-(1-methylcyclopropyl)phenoxy)phosphoryl)amino)propanoate] | 6.64 | 
CC[C@H](C)OC(=O)[C@H](C)NP(=O)(OC[C@H]1O[C@@H](n2ccc(=O)[nH]c2=O)C(Cl)(Cl)[C@@H]1O)Oc1ccccc1 (stereo partly drawn) [Example 6, (2S)—(S)-sec-butyl 2-(((((2R,3R,5R)-4,4-dichloro-5-(2,4-dioxo-3,4-dihydropyrimidin-1(2H)-yl)-3-hydroxytetrahydrofuran-2-yl)methoxy)(phenoxy)phosphoryl)amino)propanoate] | 7.00 | 
Nc1ccn([C@@H]2O[C@H](COP(=O)(O)OP(=O)(O)OP(=O)(O)O)[C@@H](O)C2(Cl)Cl)c(=O)n1 [Example 17, ((2R,3R,5R)-5-(4-Amino-2-oxopyrimidin-1(2H)-yl)-4,4-dichloro-3-hydroxytetrahydrofuran-2-yl)methyl tetrahydrogen triphosphate] |  | pKi (HCV NS5B-21): 6.77
CC(C)OC(=O)[C@H](C)NP(=O)(OC[C@H]1O[C@@H](n2ccc(=O)[nH]c2=O)C(Cl)(Cl)[C@@H]1O)Oc1cccc(C2CCC2)c1 (stereo partly drawn) [Example 7, (2S)-isopropyl 2-(((3-cyclobutylphenoxy)(((2R,3R,5R)-4,4-dichloro-5-(2,4-dioxo-3,4-dihydropyrimidin-1(2H)-yl)-3-hydroxytetrahydrofuran-2-yl)methoxy)phosphoryl)amino)propanoate] | 6.66 | 
CC(C)OC(=O)[C@@H](C)NP(=O)(OC[C@H]1O[C@@H](n2ccc(=O)[nH]c2=O)C(Cl)(Cl)[C@@H]1O)Oc1ccccc1 (stereo partly drawn) [Example 14, (2R)-Isopropyl 2-(((((2R,3R,5R)-4,4-dichloro-5-(2,4-dioxo-3,4-dihydropyrimidin-1(2H)-yl)-3-hydroxytetrahydrofuran-2-yl)methoxy)(phenoxy)phosphoryl)amino)propanoate] | 5.24 | 
O=c1ccn([C@@H]2O[C@H](CO)[C@@H](O)C2(Cl)Cl)c(=O)[nH]1 [Example 1, 1-((2R,4R,5R)-3,3-dichloro-4-hydroxy-5-(hydroxymethyl)tetrahydrofuran-2-yl)pyrimidine-2,4(1H,3H)-dione] | < 4.30 | 
CC(C)OC(=O)[C@H](C)NP(=O)(OC[C@H]1O[C@@H](n2ccc(=O)[nH]c2=O)C(Cl)(Cl)[C@@H]1O)Oc1ccc(C2(C)CC2)cc1 (stereo partly drawn) [Example 9, (2S)-Isopropyl 2-(((((2R,3R,5R)-4,4-dichloro-5-(2,4-dioxo-3,4-dihydropyrimidin-1(2H)-yl)-3-hydroxytetrahydrofuran-2-yl)methoxy)(4-(1-methylcyclopropyl)phenoxy)phosphoryl)-amino)propanoate] | 6.44 | 
CC[C@@H](C)OC(=O)[C@H](C)NP(=O)(OC[C@H]1O[C@@H](n2ccc(=O)[nH]c2=O)C(Cl)(Cl)[C@@H]1O)Oc1ccccc1 (stereo partly drawn) [Example 4, (2S)—(R)-Sec-butyl 2-(((((2R,3R,5R)-4,4-dichloro-5-(2,4-dioxo-3,4-dihydropyrimidin-1(2H)-yl)-3-hydroxytetrahydrofuran-2-yl)methoxy)(phenoxy)phosphoryl)amino)propanoate] | 6.82 | 
